# Patent US20230000813A1, “COMPOUND FOR THE TREATMENT OF BOVINE OR SWINE RESPIRATORY DISEASE” (Intervet Inc., priority 2016, published 2023)
# “And” between values parts separate entries of the source, which are not always exact repeats. Equal entries are not always repeated. Marks after values point to notes of the source that are not given here.
# Assays:
# [1] = tested on: Mannheimia haemolytica MH 13065 (XB0446-6003.9, BRD field isolate); experiment: MIC, broth-microdilution (CLSI VET01-A4); type: cell-based
# Summary of the method: (§1)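 Broth microdilution per CLSI VET01-A4 using doubling dilution series of compound. MIC taken as the lowest concentration with no turbidity visible to the unaided eye, interpreted per CLSI VET01-S3.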
# [2] = tested on: Mannheimia haemolytica MH 13093 (XB0472-6014.1, BRD field isolate); experiment: MIC, broth-microdilution (CLSI VET01-A4); type: cell-based
# Summary of the method: as §1
# [3] = tested on: Acinetobacter baumanii AB 15919 (IV369-2012, dermatitis field isolate); experiment: MIC, broth-microdilution (CLSI VET01-A4); type: cell-based; conditions: strain AB 15919
# Protocol: (§2) The Minimum inhibitory concentrations (MIC) of compounds according to the invention were determined by the broth-microdilution method according to CLSI document VET01-A4.
# (§3) Microdilution trays containing a doubling dilution series of the test compound were used for the tests.
# (§4) The MIC results were interpreted according to the CLSI documents VET01-S3. The lowest concentration of compound at which no visible growth (i.e. no turbidity) detected by the unaided eye was recorded as the MIC.
# [4] = tested on: Acinetobacter baumanii AB 16496 (ATCC 19606, reference strain); experiment: MIC, broth-microdilution (CLSI VET01-A4); type: cell-based; conditions: strain AB 16496
# Protocol: as §2, §3, §4
# [5] = tested on: Mannheimia haemolytica MH 12180 (KLI-02944, BRD field isolate); experiment: MIC, broth-microdilution (CLSI VET01-A4); type: cell-based; conditions: strain MH 12180
# Protocol: as §2, §3, §4
# [6] = tested on: Pasteurella multocida PM 14426 (0006-439, BRD field isolate, macrolide-resistant); experiment: MIC, broth-microdilution (CLSI VET01-A4); type: cell-based; conditions: strain PM 14426, macrolide-resistant
# Protocol: as §2, §3, §4
# [7] = tested on: Staphylococcus aureus SA 5816 (2139, mastitis field isolate); experiment: MIC, broth-microdilution (CLSI VET01-A4); type: cell-based; conditions: strain SA 5816
# Protocol: as §2, §3, §4
# [8] = tested on: Staphylococcus aureus SA 6114 (ATCC 29213, reference strain); experiment: MIC, broth-microdilution (CLSI VET01-A4); type: cell-based; conditions: strain SA 6114
# Protocol: as §2, §3, §4
# [9] = Plasma and tissue concentrations and pharmacokinetics in infected calves (Example 8); type: in vivo, Holstein black pied cattle calves
# Protocol: Three animals each were treated one hour after infection by subcutaneous (SC) administration of Compound 329 in an aqueous 30% (w/v) Captisol® solution for injection at a dose of 10 mg/kg BW.
# Food consumption was measured. Single individual blood samples were collected from the 12 animals at the following time points: D-1 (predose), 30 minutes, 2, 4, 6, 24 h and at D2 (ca. 45 h) after administration. After the day 2 blood sampling, the infected cattle were slaughtered. The lungs were weighted. Lung states and lung scores were observed morphologically.
# At necropsy from animals treated with test items or the positive control, samples of epithelial lining fluid (ELF), lung tissue, and additionally tissue of liver and kidney were collected. From each lung two bacteriological swaps were taken from the left and right bronchus.
# Epithelial lining fluid was collected by inserting sterile paper strips caudally behind the tracheal bifurcation directly onto the bronchial mucous membrane in the left and right bronchus and allowed to moisten with bronchial fluid. The paper strip was left in place (resting on the bronchial mucosa) for approximately 1 minute before being placed back into the plastic container.
# From each lung two tissue samples were collected by clipping from at least two locations, one from morphologically unchanged tissue, one from the edge of pathomorphologically changed areas.
# Plasma, ELF, lung tissue and additional tissue samples were analyzed for concentrations of Compound 329 and Enrofloxacin/Ciprofloxacin respectively using a HPLC-MS/MS method.
# An analysis of the measured plasma concentrations of C.
# [10] = tested on: M. haemolytica; experiment: Mannheimia haemolytica cattle lung infection model, efficacy (Example 10); type: in vivo, cattle calves; conditions: for Food consumption, cumulated for all animals in the group: 3 calves; for Bacteriological Cure (x of n) / Survival (x of n): calves infected with M. haemolytica, SC, single
# Protocol: Unless otherwise described the study was conducted as described in Clinical Example 8
# Calves were infected via intratracheal instillation of appr. 300 mL of M. haemolytica PBS suspension containing approximately 4×10^9 CFU M. haemolytica in late log phase on Day 0.
# One hour later three animals each were treated with 10 mg/kg of Compound 231(referred to as C. 231) (80 mg/mL in 10% Poloxamer 188), or 10 mg/kg or 5 mg/kg Compound 329 (referred to as C. 329) (150 mg/mL in 35% Cavitron).
# The following clinical findings were recorded: The general behavior scores of the animals before (DO am) and after infection with M. haemolytica in the different treated and control groups are indicated in FIG. 8-1: 0=normal; 1=slightly depressive, 2=moderately depressive, 3=highly depressive, 4=recumbency.
# The following pathomorphological findings after section on Day 2 were recorded: After measuring the body weight and the lung weight the Lung body mass ratio was calculated as shown in FIG. 8-2. A healthy animal has a lung body mass ration around 1.7 or lower. The area percentage of lung consolidations compared to the total lung tissue and the lung score determined that is a combined score of such percentage of lung consoldiations and the grade. For the “grade” the degree of lung consolidation score was graded from 0 to 3 for each of eight lung lobes: 0 no visible changes, 1 low graded colour changes or induration, 2 medium graded induration, 3 high graded induration, hepatisation, necrosis.
# The geometrical means (CFU/g tissue) of bacteriological re-isolations of Mannheimia haemolytica from lung tissue are illustrated in FIG. 8-4.
# [11] = SC single 10 mg/kg in 30% Captisol, individual animals and mean, 10 mg/kg
# [12] = plasma, SC 10 mg/kg, mean, Phoenix WinNonlin
structure (smiles),measurement,setting,value
CC(C)(N)C(NC(=O)c1ccc(C#Cc2ccc(CNC3CC3)cc2)cc1)C(=O)NO (centres unmarked) [C. 329],MIC,[1],0.8 µM
same,MIC,[2],1.6 µM
same,MIC,[3],16 µg/mL
same,MIC,[4],>16 µg/mL
same,MIC,[5],0.5 µg/mL
same,MIC,[6],≤0.016 µg/mL
same,MIC,[7],>16 µg/mL
same,MIC,[8],>16 µg/mL
same,compound concentrations in the tissue samples,"[9]; SC 10 mg/kg, compared with plasma, in words",above the plasma concentration
same,detection in plasma and section tissue samples,"[9]; SC 10 mg/kg, in words",detected at high concentrations
same,"Concentration, Plasma 0.5 h",[9]; [11],2340 ng/mL and 1520 ng/mL and 1280 ng/mL
same,"Concentration, Plasma 2 h",[9]; [11],1930 ng/mL and 1410 ng/mL and 2330 ng/mL
same,"Concentration, Plasma 4 h",[9]; [11],1200 ng/mL and 856 ng/mL and 1310 ng/mL
same,"Concentration, Plasma 6 h",[9]; [11],692 ng/mL and 928 ng/mL and 718 ng/mL
same,"Concentration, Plasma 24 h",[9]; [11],146 ng/mL and 187 ng/mL and 176 ng/mL
same,"Concentration, Plasma 48 h",[9]; [11],60.5 ng/mL and 57.4 ng/mL and 85.2 ng/mL
same,"Concentration, Tissue (48 h) Kidney",[9]; [11],22800 ng/mL and 25500 ng/mL and 17100 ng/mL
same,"Concentration, Tissue (48 h) Liver",[9]; [11],7760 ng/mL and 7850 ng/mL and 5130 ng/mL
same,"Concentration, Tissue (48 h) Lung",[9]; [11],8290 ng/mL and 9410 ng/mL and 7570 ng/mL
same,"Concentration, Tissue (48 h) ELF","[9]; epithelial lining fluid, SC single 10 mg/kg in 30% Captisol, individual animals and mean, 10 mg/kg",320 ng/mL and 356 ng/mL and 1370 ng/mL
same,AUClast,[9]; [12],19434 ng·h/mL
same,Cmax,[9]; [12],2063 ng/mL
same,HL_Lambda_z (Half life time),[9]; [12],11.1 h
same,MRTlast (Mean retention time till last measured value),[9]; [12],9.7 h
same,Tmax,[9]; [12],1.0 h
same,Vz_F_obs,[9]; [12],7.8 L/kg
same,"Food consumption, cumulated for all animals in the group","[10]; D 0 am, after infection and treatment, 5 mg/kg",1213 g
same,"Food consumption, cumulated for all animals in the group","[10]; D 0 am, after infection and treatment, 10 mg/kg",1800** g
same,"Food consumption, cumulated for all animals in the group","[10]; D 0 pm, 5 mg/kg",4800 g
same,"Food consumption, cumulated for all animals in the group","[10]; D 0 pm, 10 mg/kg",4800 g
same,"Food consumption, cumulated for all animals in the group","[10]; D +1 am, 5 mg/kg",4800 g
same,"Food consumption, cumulated for all animals in the group","[10]; D +1 am, 10 mg/kg",4800 g
same,"Food consumption, cumulated for all animals in the group","[10]; D +1 pm, 5 mg/kg",4800 g
same,"Food consumption, cumulated for all animals in the group","[10]; D +1 pm, 10 mg/kg",4800 g
same,"Food consumption, cumulated for all animals in the group","[10]; D −1 (before infection), 5 mg/kg",4800 g
same,"Food consumption, cumulated for all animals in the group","[10]; D −1 (before infection), 10 mg/kg",4800 g
same,Bacteriological Cure (x of n),[10]; 5 mg/kg BW,1/3
same,Survival (x of n),[10]; 5 mg/kg BW,3/3
same,Bacteriological Cure (x of n),[10]; 10 mg/kg BW,3/3
same,Survival (x of n),[10]; 10 mg/kg BW,3/3
same,efficacy against an artificial lung infection with M. haemolytica in the calf,"[10]; tested dosages 10 mg/kg for C 231 and 10 mg/kg and 5 mg/kg for C 329, conclusion in words",effective
